Assays:
[1] = tested on: HL-60(TB); assay: NCI-60 screening (SRB); assay type: cell-based, human; conditions: HL-60(TB), five-dose
[2] = tested on: Breast cancer; assay: NCI-60 screening (SRB), subpanel; assay type: cell-based
Source text: (§1) The experimental data allow the assessment of the cytostatic effect, indicated by growth inhibition values ranging between 0 and 100, as well as of the cytotoxic effect, indicated by negative values.
(§2) The mean GI50 (molar concentration of the compound that inhibits 50% net cell growth), TGI (molar concentration of the compound leading to the total inhibition), and LC50 (molar concentration of the compound leading to 50% net cell death (presented in negative logarithm)) values across each cell line are shown in Table 2.
(§3) The selectivity index (SI), calculated as the ratio between the full panel MG_MID60 (μM) of compounds 4, 6, and 9 by their respective subpanels MG_MID of the cell line (μM), was introduced as a quantification tool for the selectivity of each compound in terms of anticancer effect (Table 3).
(§4) Primary anticancer assays were performed according to the NCI protocol, as described elsewhere (see e.g., http://dtp.nci.nih.gov accessed on 1 November 2018). The compounds were added at a single concentration, and the cell cultures were incubated for 48 h. The end point determinations were made with a protein-binding dye, sulforhodamine B (SRB). […] The percentage of growth was evaluated spectrophotometrically versus controls not treated with test agents after 48 h exposure and using SRB protein assay to estimate cell viability or growth. Three antitumor activity dose-response parameters were calculated for each cell line. Furthermore, mean graph midpoints (MG_MID) were calculated for each of the parameters, giving an average activity parameter over all cell lines for the tested compound. For the MG_MID calculation, insensitive cell lines were included with the highest concentration tested.

[3] = tested on: Colon Cancer; assay: NCI-60 screening (SRB), subpanel; assay type: cell-based
Source text: as §1, §2, §3, §4

[4] = tested on: Leukemia; assay: NCI-60 screening (SRB), subpanel; assay type: cell-based; conditions: Leukemia; MG_MID60/subpanel MG_MID
Source text: as §1, §2, §3, §4

[5] = tested on: Melanoma; assay: NCI-60 screening (SRB), subpanel; assay type: cell-based
Source text: as §1, §2, §3, §4

[6] = tested on: NSC lung cancer; assay: NCI-60 screening (SRB), subpanel; assay type: cell-based
Source text: as §1, §2, §3, §4

[7] = tested on: Ovarian cancer; assay: NCI-60 screening (SRB), subpanel; assay type: cell-based
Source text: as §1, §2, §3, §4

[8] = tested on: Prostate cancer; assay: NCI-60 screening (SRB), subpanel; assay type: cell-based
Source text: as §1, §2, §3, §4

[9] = tested on: Renal Cancer; assay: NCI-60 screening (SRB), subpanel; assay type: cell-based
Source text: as §1, §2, §3, §4

[10] = tested on: A549/ATCC; assay: NCI-60 screening (SRB); assay type: cell-based, human; conditions: five-dose
[11] = tested on: HOP-62; assay: NCI-60 screening (SRB); assay type: cell-based, human; conditions: five-dose
[12] = tested on: NCI-H226; assay: NCI-60 screening (SRB); assay type: cell-based, human; conditions: five-dose
[13] = tested on: NCI-H322M; assay: NCI-60 screening (SRB); assay type: cell-based, human; conditions: five-dose
[14] = tested on: NCI-H460; assay: NCI-60 screening (SRB); assay type: cell-based, human; conditions: five-dose
[15] = tested on: SF-295; assay: NCI-60 screening (SRB); assay type: cell-based, human; conditions: five-dose
[16] = tested on: UACC-257; assay: NCI-60 screening (SRB); assay type: cell-based, human; conditions: five-dose
[17] = tested on: UACC-62; assay: NCI-60 screening (SRB); assay type: cell-based, human; conditions: five-dose
[18] = tested on: IGROV1; assay: NCI-60 screening (SRB); assay type: cell-based, human
[19] = tested on: OVCAR-4; assay: NCI-60 screening (SRB); assay type: cell-based, human; conditions: five-dose
[20] = tested on: OVCAR-5; assay: NCI-60 screening (SRB); assay type: cell-based, human; conditions: five-dose
[21] = tested on: CAKI-1; assay: NCI-60 screening (SRB); assay type: cell-based, human; conditions: CAKI-1, five-dose
[22] = tested on: RXF 393; assay: NCI-60 screening (SRB); assay type: cell-based, human; conditions: five-dose
[23] = tested on: TK-10; assay: NCI-60 screening (SRB); assay type: cell-based, human; conditions: five-dose
[24] = tested on: MDA-MB-31/ATCC; assay: NCI-60 screening (SRB); assay type: cell-based, human; conditions: five-dose
[25] = tested on: MDA-MB-468; assay: NCI-60 screening (SRB); assay type: cell-based, human; conditions: five-dose
[26] = Homo sapiens, read-out: LC50 (the source's name)

CCN1CCN(C(=O)[C@]23CC[C@@H](C)[C@H](C)[C@H]2C2=CC[C@@H]4[C@@]5(C)CCC(=O)C(C)(C)[C@@H]5CC[C@@]4(C)[C@]2(C)CC3)CC1 [Compound 4, N-(3-oxo-ursan-12-en-28-oyl)-ethylpiperazine]
TGI [1]: 2740 nM | GI50 ([1]; Homo sapiens): 976 nM | CC50 [1, 26]: > 50000 nM | TGI MG_MID ([2]; Breast cancer subpanel, five-dose): 2330 nM | SI (TGI) ([2]; Breast cancer, MG_MID60/subpanel MG_MID): 1.17 | GI50 ([2]; Homo sapiens, Breast cancer subpanel, five-dose, read-out: GI50 MG_MID): 970 nM | CC50 ([2]; Homo sapiens, Breast cancer subpanel, five-dose, read-out: LC50 MG_MID): 16000 nM | TGI MG_MID ([3]; Colon Cancer subpanel, five-dose): 2030 nM | SI (TGI) ([3]; Colon Cancer, MG_MID60/subpanel MG_MID): 1.35 | GI50 ([3]; Homo sapiens, Colon Cancer subpanel, five-dose, read-out: GI50 MG_MID): 940 nM | CC50 ([3]; Homo sapiens, Colon Cancer subpanel, five-dose, read-out: LC50 MG_MID): 5920 nM | SI (TGI) [4]: 1.12 | GI50 ([5]; Homo sapiens, Melanoma subpanel, five-dose, read-out: GI50 MG_MID): 930 nM | CC50 ([5]; Homo sapiens, Melanoma subpanel, five-dose, read-out: LC50 MG_MID): 4940 nM | TGI MG_MID ([5]; Melanoma subpanel, five-dose): 1930 nM | SI (TGI) ([5]; Melanoma, MG_MID60/subpanel MG_MID): 1.42 | GI50 ([6]; Homo sapiens, NSC lung cancer subpanel, five-dose, read-out: GI50 MG_MID): 1180 nM | CC50 ([6]; Homo sapiens, NSC lung cancer subpanel, five-dose, read-out: LC50 MG_MID): 17000 nM | TGI MG_MID ([6]; NSC lung cancer subpanel, five-dose): 3600 nM | SI (TGI) ([6]; NSCL cancer, MG_MID60/subpanel MG_MID): 0.76 | GI50 ([7]; Homo sapiens, Ovarian cancer subpanel, five-dose, read-out: GI50 MG_MID): 1190 nM | CC50 ([7]; Homo sapiens, Ovarian cancer subpanel, five-dose, read-out: LC50 MG_MID): 16200 nM | SI (TGI) ([7]; Ovarian Cancer, MG_MID60/subpanel MG_MID): 0.77 | TGI MG_MID ([7]; Ovarian cancer subpanel, five-dose): 3550 nM | GI50 ([8]; Homo sapiens, Prostate cancer subpanel, five-dose, read-out: GI50 MG_MID): 1270 nM | CC50 ([8]; Homo sapiens, Prostate cancer subpanel, five-dose, read-out: LC50 MG_MID): 18400 nM | TGI MG_MID ([8]; Prostate cancer subpanel, five-dose): 4400 nM | SI (TGI) ([8]; Prostate cancer, MG_MID60/subpanel MG_MID): 0.62 | GI50 ([9]; Homo sapiens, Renal cancer subpanel, five-dose, read-out: GI50 MG_MID): 950 nM | LC50 (50% net cell kill) ([9]; Homo sapiens, Renal cancer subpanel, five-dose, read-out: LC50 MG_MID): 8380 nM | SI (TGI) ([9]; Renal Cancer, MG_MID60/subpanel MG_MID): 1.08 | TGI MG_MID ([9]; Renal cancer subpanel, five-dose): 2530 nM | GI50 ([10]; Homo sapiens): 1470 nM | CC50 [10, 26]: 21800 nM | TGI [10]: 5980 nM | GI50 ([11]; Homo sapiens): 1380 nM | LC50 ([11]; Homo sapiens): > 50000 nM | TGI [11]: 3090 nM | GI50 ([12]; Homo sapiens): 1780 nM | CC50 [12, 26]: 28700 nM | TGI [12]: 7010 nM | GI50 ([13]; Homo sapiens): 1570 nM | CC50 [13, 26]: 16800 nM | TGI [13]: 5430 nM | GI50 ([14]; Homo sapiens): 913 nM | CC50 [14, 26]: 3270 nM | TGI [14]: 1750 nM | GI50 ([15]; Homo sapiens): 820 nM | CC50 [15, 26]: 3080 nM | TGI [15]: 1590 nM | GI50 ([16]; Homo sapiens): 985 nM | CC50 [16, 26]: 4880 nM | TGI [16]: 2190 nM | GI50 ([17]; Homo sapiens): 835 nM | CC50 [17, 26]: 3090 nM | TGI [17]: 1610 nM | GI50 ([18]; Homo sapiens, IGROV-1, five-dose): 1040 nM | CC50 ([18]; Homo sapiens, IGROV-1, five-dose, read-out: LC50 (the source's name)): 19100 nM | TGI ([18]; five-dose): 4850 nM | GI50 ([19]; Homo sapiens): 1260 nM | CC50 [19, 26]: 18000 nM | TGI [19]: 4740 nM | GI50 ([20]; Homo sapiens): 907 nM | CC50 [20, 26]: 3870 nM | TGI [20]: 1870 nM | TGI [21]: 2960 nM | GI50 ([21]; Homo sapiens): 946 nM | CC50 [21, 26]: 11200 nM | GI50 ([22]; Homo sapiens): 822 nM | CC50 [22, 26]: 3690 nM | TGI [22]: 1740 nM | GI50 ([23]; Homo sapiens): 1270 nM | CC50 [23, 26]: 20300 nM | TGI [23]: 4140 nM | GI50 ([24]; Homo sapiens): 779 nM | CC50 [24, 26]: 2880 nM | TGI [24]: 1500 nM | GI50 ([25]; Homo sapiens): 931 nM | CC50 [25, 26]: 9270 nM | TGI [25]: 2320 nM

From PMC8536124 (International Journal of Molecular Sciences, 2021)
